Measured values as given in US11608320B2, “Oxazolidinone hydroxamic acid derivatives” (KUWAIT UNIVERSITY, priority 2020, dated 2023).
pIC50: −log10 of the molar value.

How the values were obtained:
[1] = test system: degranulation of bone marrow-derived mouse mast cells; experiment: Inhibition of degranulation (β-hexoseaminidase release) in allergen/IgE-activated BMMC; type: cell-based; details: anti-DNP IgE sensitized, DNP-BSA 30 ng/ml, 30 min
Source text: (§1) Inhibition of LTC4 release and degranulation in allergen/IgE-activated bone marrow-derived mouse mast cells (BMMC): Bone marrow-derived mast cells (BMMC) were generated from pathogen-free 5-7 week old male Balb/c mice according to the method of Davis et al., [2004] (Davis, B. J., et al., (2004), Journal of Immunology, 173: 6914-6920). Essentially, bone marrow cells were obtained by flushing of the femoral bone marrow and cultured in RPMI 1640 medium supplemented with 10% FBS, 100 U/ml penicillin, and 100 μg/ml streptomycin, 25 mM HEPES, 1.0 mM sodium pyruvate, 0.1 mM nonessential amino acids, 0.0035% 2-mercaptoethanol, and 30 ng/ml mouse recombinant IL-3, with culture medium replaced every two days. Cells were used after 4-8 weeks of culture, by which time at least 97% of the cells would have differentiated into mast cells.
The generated BMMCs were seeded at 5×10^4 cells/well in a 96-well flat-bottom culture plate and passively sensitized overnight with 0.5 μg/ml anti-DNP monoclonal IgE antibody (clone SPE-7, Sigma-Aldrich, St. Louis, Mo., USA). The cells were then washed twice to remove any unbound antibody and subsequently re-suspended in reaction buffer (135 mM NaCl, 5 mM KCl, 1.8 mM CaCl2), 1 mM MgCl2, 5.6 mM glucose, 0.05% BSA and 20 mM HEPES, pH 7.4). […] After 30 min incubation at 37° C., the amount of LTC4 released into the supernatant (as index of 5-LO activity) was determined by ELISA as described below.
The concurrently-released granular enzyme, β-hexoseaminidase (as index of degranulation) was determined as described below.
The beta-hexoseaminidase released into the supernatant by the degranulating BMMCs was determined colorimetrically using p-nitrophenyl-N-acetyl-β-D-glucosaminide as substrate. […] The absorbance of the colored product (p-nitrophenol) was then read at 405 nm in a microplate reader. Results were expressed as percentage of the total cell content (determined in cells lysed with 0.1% triton-x-100).

[2] = test system: zymosan-induced peritonitis; experiment: Zymosan-induced peritoneal inflammation in mice; type: in vivo, mouse; details: 30 min before zymosan i.p., peritoneal exudate at 2 h
Source text: Inhibition of zymosan-induced peritoneal inflammation in mice: Female Balb/c mice, 6-8 weeks old, obtained from the Animal Resources Center of the Health Sciences Center, Kuwait University, were used. They were maintained under temperature-controlled conditions with an artificial 12-h light/dark cycle and allowed standard chow and water ad libitum. The study protocol was approved by the “Health Sciences Center Animal Welfare Committee” and complied with the “Guidelines for the Care and Use of Laboratory Animals” of the Health Sciences Centre, Kuwait University. The zymosan-induced peritonitis model-a recognized LT-mediated inflammatory reaction, described particularly in Hanke et al., 2013 ([…]., et al. (2013). Journal of medicinal chemistry, 56(22), 9031-9044) was used. […] After 30 min, all groups were injected intraperitonally with 0.2 ml of activated zymosan (2 mg/ml) except the control group that received 0.2 ml PBS. After 2 h, all animals were killed and the peritoneal exudate was collected by washing the cavity with 3 ml of heparinized (10 IU/ml) PBS.

[3] = test system: LTC4 release from IgE/antigen-activated mouse mast cells (BMMC); experiment: Inhibition of LTC4 release in allergen/IgE-activated bone marrow-derived mouse mast cells; type: cell-based; details: BMMC, anti-DNP IgE sensitized, DNP-BSA 30 ng/ml, 30 min
Source text: as §1
The generated BMMCs were seeded at 5×10^4 cells/well in a 96-well flat-bottom culture plate and passively sensitized overnight with 0.5 μg/ml anti-DNP monoclonal IgE antibody (clone SPE-7, Sigma-Aldrich, St. Louis, Mo., USA). The cells were then washed twice to remove any unbound antibody and subsequently re-suspended in reaction buffer (135 mM NaCl, 5 mM KCl, 1.8 mM CaCl2), 1 mM MgCl2, 5.6 mM glucose, 0.05% BSA and 20 mM HEPES, pH 7.4). They were then pre-incubated with the test compounds (0.01-30 μM) or the solvent (0.05% DMSO) for 15 min before being stimulated with the specific antigen, DNP-BSA (30 ng/ml). After 30 min incubation at 37° C., the amount of LTC4 released into the supernatant (as index of 5-LO activity) was determined by ELISA as described below.
Assay of released leukotrienes/β-hexoseaminidase enzyme: Appropriately diluted supernatants were assayed for the released LTs (LTB4 and LTC4), by the enzyme immunoassay (EIA) method using assay kits supplied by R&D Systems (Minneapolis, Minn., USA) and following the manufacturer's instructions.

[4] = target: T1, recombinant human 5-LO enzyme (Homo sapiens, UniProt P09917); experiment: Direct 5-LO inhibitory activity in a cell-free assay (H2DCF-DA fluorescence); type: biochemical; details: cell-free, recombinant human 5-LO; read-out: Inhibitory Activity IC50, Human recomb. 5-LO
T1 sequence (P09917 1-674): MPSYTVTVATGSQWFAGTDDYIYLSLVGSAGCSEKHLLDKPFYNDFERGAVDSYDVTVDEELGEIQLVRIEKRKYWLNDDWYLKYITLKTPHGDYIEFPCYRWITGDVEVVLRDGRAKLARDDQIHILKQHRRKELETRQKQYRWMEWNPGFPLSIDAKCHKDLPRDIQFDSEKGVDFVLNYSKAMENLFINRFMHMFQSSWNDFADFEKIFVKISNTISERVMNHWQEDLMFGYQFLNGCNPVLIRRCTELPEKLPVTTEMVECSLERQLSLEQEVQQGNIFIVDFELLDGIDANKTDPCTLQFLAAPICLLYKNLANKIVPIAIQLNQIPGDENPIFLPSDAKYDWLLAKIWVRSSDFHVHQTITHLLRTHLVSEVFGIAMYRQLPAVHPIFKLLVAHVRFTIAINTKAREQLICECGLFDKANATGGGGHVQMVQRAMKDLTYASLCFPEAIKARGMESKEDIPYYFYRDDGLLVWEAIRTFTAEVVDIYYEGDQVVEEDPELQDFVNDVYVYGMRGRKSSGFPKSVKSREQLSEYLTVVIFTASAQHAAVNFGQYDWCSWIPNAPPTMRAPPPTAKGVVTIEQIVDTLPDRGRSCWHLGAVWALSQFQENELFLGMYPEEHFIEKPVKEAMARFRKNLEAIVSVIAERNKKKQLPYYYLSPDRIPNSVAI
Procedure: H2DCF-DA (60 μM) was first pre-cleaved by incubating with 450 mU/ml recombinant human 5-LO enzyme in Tris buffer (containing 50 mM Tris, pH=7.5, 2 mM EDTA, 2 mM CaCl2), 1 mM dithiothreitol (DTT) and 0.6 U/ml glutathione peroxidase) for 10 min at room temperature. […] After 10 min incubation at room temperature, the reaction was started with the addition of 50 μl of the substrate solution (Tris buffer containing 20 μM ATP and 20 μM arachidonic acid). After a further 20 min, the reaction was terminated with 100 μl acetonitrile. Fluorescence was read at 500 nm excitation and 520 emission, with Novostar® microplate reader (BMG Labtech, Offenburg, Germany). Appropriate controls, including 100 μM nordihydroguaiaretic acid (NDGA), were included to isolate only the 5-LO-attributable, NDGA-inhibitable RFU values.

isolated human monocytes = experiment: In vitro toxicity testing (MTT viability); type: cell-based; details: concentrations up to 50 μM, 3 h or 24 h, n=3
Procedure: In Vitro Toxicity Testing: Adherent human monocytes, prepared as described above, were used. The cells were cultured with various concentrations of the test compounds or vehicle, or with 0.05% Triton-X as positive control for 3 h or 24 h. At the end of the culture, cell viability was determined using the MTT (3-(4,5 dimethylthiazol-2-yl)-2,5-diphenyltetrazolium bromide) assay method. Briefly, 15 μl of the MTT solution (5 mg/ml) was added to each well, and incubated at 37° C. for 4 h. After removing the supernatant, 200 μl of dimethylsulfoxide (DMSO) was added to dissolve the crystals. Absorbance at 570 nm was then measured in a microplate reader. Viability was expressed as percentage of the vehicle-treated cells.

CC(c1cc2ccccc2s1)N(O)C(N)=O (racemic) [Zileuton, (±)1-(1-(benzo[b]thiophen-2-yl)ethyl)-1-hydroxyurea, reference compound]
Inhibition of degranulation (release of granular β-hexoseaminidase) (FIG. 2B) [1]: only the representative compounds were able to inhibit degranulation | Net Exudate Vol ([2]; 3 mg/kg s.c.): 0.14 ± 0.04 mL | Total Cell No ([2]; 3 mg/kg s.c.): 16.7 ± 2.8 ×10^6 | Total LTC4 ([2]; 3 mg/kg s.c.): 71.0 ± 12.4 ng | Net Exudate Vol ([2]; 10 mg/kg s.c.): 0.20 ± 0.07 mL | Total Cell No ([2]; 10 mg/kg s.c.): 24.9 ± 2.1 ×10^6 | Total LTC4 ([2]; 10 mg/kg s.c.): 97.2 ± 47.3 ng | Net Exudate Vol ([2]; 30 mg/kg s.c.): no significant effect on exudate volume | Total Cell No ([2]; 30 mg/kg s.c.): 19.1 ± 4.4 ×10^6 | Total LTC4 ([2]; 30 mg/kg s.c.): 48.3 ± 9.8 ng | Net Exudate Vol ([2]; 30 mg/kg s.c., listed as Zil): 0.10 ± 0.05 mL | Inhibition of generation of LTC4 from IgE/allergen-activated mast cells (FIG. 2A) [3]: equally effective in inhibiting the generation of LTC4

CCCCCC(=O)N(O)C[C@H]1CN(c2ccc(N3CCOCC3)c(F)c2)C(=O)O1 [PH-247, (R)—N-((3-(3-fluoro-4-morpholinophenyl)-2-oxooxazolidin-5-yl)methyl)-N-hydroxyhexanamide]
pIC50 [4]: 5.47 | Effect on viability of isolated human monocytes (MTT) (isolated human monocytes): no significant effect on cell viability | melting point: 118.5 to 120.5 °C

CCCCCCC(=O)N(O)C[C@H]1CN(c2ccc(N3CCOCC3)c(F)c2)C(=O)O1 [PH-249, (R)—N-((3-(3-fluoro-4-morpholinophenyl)-2-oxooxazolidin-5-yl)methyl)-N-hydroxyheptanamide]
pIC50 [4]: 5.72 | Inhibition of degranulation (release of granular β-hexoseaminidase) (FIG. 2B) [1]: able to inhibit degranulation | Net Exudate Vol ([2]; 10 mg/kg s.c.): 0.16 ± 0.08 mL | Total Cell No ([2]; 10 mg/kg s.c.): 39.7 ± 6.6 ×10^6 | Total LTC4 ([2]; 10 mg/kg s.c.): 107.2 ± 51.6 ng | Net Exudate Vol ([2]; 30 mg/kg s.c.): 0.06 ± 0.01 mL | Total Cell No ([2]; 30 mg/kg s.c.): 17.8 ± 2.2 ×10^6 | Total LTC4 ([2]; 30 mg/kg s.c.): 102.8 ± 20.9 ng | Effect on viability of isolated human monocytes (MTT) (isolated human monocytes): no significant effect on cell viability | Inhibition of generation of LTC4 from IgE/allergen-activated mast cells (FIG. 2A) [3]: equally effective in inhibiting the generation of LTC4 | melting point: 123 to 125 °C
